# Data reported in patent publication US10973896B2, “Treatment or prevention of melanoma using photochemical internalization of a melanoma antigen” (PCI Biotech AS, priority 2014, dated 2021).
# Key:
# J774 cells = experiment: Live cell fluorescence microscopy of J774 cells; assay type: cell-based, mouse; settings: for cellular uptake and distribution of Alexa488-labelled OVA: with or without parallel PCI treatment, FIG. 9A
# Protocol: Fifty thousand J774.1 cells (ATCC no. TIB-67 mouse monocyte macrophage cell line) were seeded out on no. 1.5 glass coverslips (Glasswarenfabrik Karl Hecht KG, Sondheim, Germany) in 4-well plates overnight. The cells were incubated with 0.05 or 1,0 μg/ml TPCS2a for 18 hours and washed three times in drug-free culture medium prior to incubation with 25 μg/ml OVA-Alexa488 for four hours. Cells were subsequently washed in ice-cold PBS with Ca^2+ and Mg^2+ prior to microscopy. Images of cellular localization and PCI-induced cytosolic release of OVA was obtained by epi-fluorescence microscopy using a Plan-Apochromat 63×/1.40 Oil differential interference contrast (DIC) objective or 40×/0.95 Plan-Apochromat phase contrast (Korr Ph3 M27) objective with a Zeiss Axioimager Z.1 microscope (Carl Zeiss, Oberkochen, Germany). Fluorescence of Alexa488-labelled OVA was obtained by using a 470/40 nm band pass (BP) excitation filter with a beam splitter at 495 nm and a 525/50 nm BP emission filter. TPCS2a fluorescence was obtained by using a 395-440 nm BP excitation filter with a beam splitter at 460 nm, and a 620 nm long pass filter. Micrographs were recorded with a digital AxioCam MRm camera and processed and analysed by use of the Axiovision Software (Carl Zeiss).
# [1] = test system: SIINFEKL-specific CD8 T cells; experiment: PCI immunisation of OT-I-spiked mice, SIINFEKL pentamer flow cytometry (Example 2); assay type: in vivo, C57BL/6 mice; settings: TPCS2a at 10, 25, 50, 100 and 250 μg; data not shown
# Protocol: One day prior to the immunisation, spleens and lymph nodes were isolated from female OT-1 mice, and erythrocytes were removed by lysis (RBC Lysing Buffer Hybri-Max from Sigma-Aldrich) from the homogenised cell suspensions. The remaining cells were washed in PBS, filtered through 70 micron nylon strainers, and 2×10^6 OT-1 cells were administered by intravenous injection into recipient female C57BLJ6 mice; the adoptive transfer of SIINFEKL-specific CD8 T cells facilitates monitoring of the immune response by flow cytometry. One day or 8 hours later, mice were bled by tail bleeding, and the blood was collected in heparin-containing tubes for analysis of the baseline frequency of OVA-specific CD8 T cells.
# (§1) Then, the mice were shaved on the abdominal area, and the vaccines, consisting of OVA or of a mixture of OVA and TPCS2a, were injected intradermally using syringes with 29G needles. The vaccines were kept light protected and used within 60 minutes of preparation. The vaccines were given in two injections of 50 μl each, on the left and right side of the abdominal mid line. OVA was tested at 10 to 100 μg per dose. The TPCS2a dose was 7.5 to 250 μg.
# (§2) On day 0, prior to vaccination and on various days thereafter (e.g. day 6, 7, 8, 9, 14, 23, as indicated) mice were bled by tail bleeding and erythrocytes were removed by lysis, before analysis of antigen-specific CD8 T cells by flow cytometry. At the end of the experiment (typically 11, 12, 14 or 23 days), the mice were euthanized and the splenocytes analysed ex vivo. At various time points after the TPCS2a injection (0-48 hours), the mice were anaesthetised by intraperitoneal injection of a mixture of ketamine (25 mg/kg body weight) and xylazin (4 mg/kg) and placed on a light source (for illumination and activation of the photosensitiser TPCS2a). The light dose was 6 minutes, if not otherwise stated. The whole procedure is illustrated in the scheme of FIG. 6A. The illumination of mice using LumiSource™ is imaged in FIG. 6B.
# The frequency of OVA-specific CD8 T-cells in blood was monitored by staining the cells with anti-CD8 antibody and H-2K^b/SIINFEKL ProS pentamer (Proimmune, Oxford, UK) for analysis by flow cytometry. The activation status of the cells was further analysed by testing the expression of CD44 and CD69 by flow cytometry. Intracellular staining for IFN-γ was done after overnight stimulation of splenocytes in 24-well plates with the CD8 epitope OVA257-264 (SIINFEKL) at 37 ° C. Brefeldin A was added during the last 4 hours. The cells were then washed and fixed with 4% formaldehyde in PBS for 10 min on ice. Anti-CD16/32 was added to block unspecific binding to Fc receptors. The cells were then permeabilised with 0.1% NP40 in PBS for 3 min and washed before staining with anti-IFN-γ, anti-CD8 and ant-CD44 antibodies (eBioscience or BD Pharmingen). The cells were acquired using FACSCanto (BD Biosciences, San Jose, USA) and analysed using FlowJo 8.5.2 software (Tree Star, Inc., Ashland, Oreg.).
# bone marrow DCs = experiment: Fluorescence microscopy of cytosolic antigen release in dendritic cells; assay type: cell-based, C57BL/6 mice; settings: incubated with TPCS2a and Alexa488-labelled OVA
# Protocol: Cells (J774.1 (ATCC no. TIB-67 mouse monocyte macrophage cell line) or bone marrow DCs from C57BL/6 mice) were incubated with 0.05 or 1.0 μg/ml TPCS2a and 25 μg/ml OVA-Alexa488 for 18 hours and washed three times in drug-free culture medium prior to incubation for four hours before light activation (3 min LumiSource exposure). The cells were subsequently washed in ice-cold PBS with Ca^2+ and Mg^2+ prior to microscopy. Images of cellular localization and PCI-induced cytosolic release of OVA were obtained by epi-fluorescence microscopy using a Plan-Apochromat 63×/1.40 Oil differential interference contrast (DIC) objective or 40×/0.95 Plan-Apochromat phase contrast (Korr Ph3 M27) objective with a Zeiss Axioimager Z.1 microscope (Carl Zeiss, Oberkochen, Germany). Fluorescence of Alexa488-labelled OVA was obtained by using a 470/40 nm band pass (BP) excitation filter with a beam splitter at 495 nm and a 525/50 nm BP emission filter. TPCS2a fluorescence was obtained by using a 395-440 nm BP excitation filter with a beam splitter at 460 nm, and a 620 nm long pass filter. Micrographs were recorded with a digital AxioCam MRm camera and processed and analysed by use of the Axiovision Software (Carl Zeiss).
# [2] = Local reaction at the illuminated injection site (Example 2); assay type: in vivo, C57BL/6 mice; settings: higher TPCS2a doses; days 1-3 after illumination; data not shown
# Protocol: as §1, §2
Substance,cellular uptake and distribution of Alexa488-labelled OVA (J774 cells),OVA-specific immune response with increasing TPCS2a dose [1],"localisation of antigen and photosensitiser (bone marrow DCs; before light, FIG. 5A)",antigen distribution after light activation (bone marrow DCs; FIG. 5B),relative localisation of antigen and TPCS2a after light activation (J774 cells; FIG. 9B),local inflammation after illumination [2]
Alexa488-labelled OVA: Alexa488-labelled OVA protein for fluorescence microscopy,located close to the cell surface in concise spherical shaped bodies,–,–,–,–,–
tetraphenyl chlorin disulfonate [TPCS2a],diffuse green fluorescence,increased the measured OVA-specific immune response,co-localisation of antigen and photosensitiser in DC endosomes,release of the antigen into the cytosol could be observed over 15 minutes,co-localised,more local inflammation with transient erythema
